Source: patent publication US12285434B2, “Therapeutic, preventive, or improvement agent for inflammatory disease and allergic disease” (The University of Tokyo, priority 2018, dated 2025)

Key:
[1] = system: histamine-induced vascular permeability in mouse ears; test: Modified Miles assay: histamine-induced vascular hyperpermeability (Evans blue extravasation); assay type: in vivo, mouse (C57BL/6); settings: pretreatment 0.1 μg/ear, 15 minutes, before 400 μg histamine
Method: Fifteen (15) minutes after the intracutaneous injection, a vehicle (80% acetone) or histamine (400 μg, manufactured by Molecular Probes) was percutaneously administered to the ventral surface of the ears. To evaluate vascular permeability, Evans blue (50 mg/kg, manufactured by Sigma) was injected intravenously 5 minutes after the administration of histamine. The mice were then euthanized by cervical dislocation 30 minutes after the injection of Evans blue. The ears were dissected, dried at 55° C., and weighed. Extravasated Evans blue present in the ears was extracted in formamide (manufactured by Molecular Probes), and quantified spectrophotometrically (manufactured by PerkinElmer Japan Co., Ltd.) at a wavelength of 610 nm.

[2] = system: HUVECs; test: Endothelial barrier function: transendothelial electrical resistance (TER); assay type: cell-based, human
Method: (§1) In Examples 4 to 6, human umbilical vein endothelial cells (hereinafter, sometimes referred to as “HUVECs”, manufactured by Lonza) were cultured in EGM-2 (manufactured by Lonza K.K.). These cells (passages 4 to 9) were used for experiments after 4-hour starvation in EBM-2 (manufactured by Lonza K.K.) containing 2% FBS.
The in vitro endothelial barrier function was evaluated by measuring the transendothelial electrical resistance (hereinafter, sometimes referred to as “TER”) of the HUVECs prepared in the above item (1) over time. Specifically, the transendothelial electrical resistance was measured using an xCELLigence Real-Time Cell Analyzer DP system (manufactured by Roche). The system monitors changes in TER across an interdigitated microelectrode at the bottom of tissue culture E-plates (manufactured by Roche). The HUVECs (8,000 cells) were plated on the E-plates and incubated until confluent. Then, the following operation (a) or (b) was performed.
(a) Each reagent was added to plates on which the HUVECs were cultured, so as to give a vehicle, 1 U/mL thrombin, 1 μM forskolin, or 0.1 μM or 0.3 μM 5,6-DiHETE (FIGS. 4A and 4B).
(b) A vehicle or […] was added to plates on which the HUVECs were cultured, so as to attain 10 μM. […] Thirty (30) minutes after the addition, 10 μM histamine was added to each plate 30 minutes after the addition (FIGS. 4C and 4D).
In the above operations (a) and (b), the TER was measured every 60 seconds. For normalization, the cell index value at each time point is shown as a ratio relative to the initial value. The maximum normalized cell index after stimulation was quantified and represented as maximal response. Note that it is known that the disruption of the endothelial barrier function lowers the TER, but that the enhancement of the endothelial barrier function increases the TER.

[3] = system: NO production in HUVECs; test: Histamine-induced NO production (nitrite and nitrate); assay type: cell-based, human; settings: pretreatment 0.1 μM, 15 minutes; histamine 10 μM
Method: as §1
The HUVECs were washed three times with HEPES and incubated in HEPES supplemented with 1 mM L-arginine and 10 μM tetrahydrobiopterin. After equilibration for 30 minutes, the medium was exchanged, and the cells were incubated for additional 30 minutes. […] The conditioned media before and after the stimulation (100 μL each) were collected and centrifuged in each amount of 300 g for 3 minutes. The supernatants were collected, and used to measure nitrite and nitrate, as stable metabolites of NO, by an ENO-20 NOx analyzer (manufactured by Eicom Corporation). The degrees of increases of nitrite and nitrate levels after the stimulation were normalized with cellular protein contents.

[4] = system: DSS-induced colitis model mice; test: DSS-induced colitis: colitis severity (body weight, fecal score, colon length); assay type: in vivo, mouse (C57BL/6); settings: Day 14; 50 μg/kg/day intraperitoneally on Days 9, 11 and 13
Excerpt: C57BL/6 strain mice (male, 8 to 12 weeks old) were fed with water containing 2% dextran sodium sulfate (manufactured by MP Bio, hereinafter sometimes referred to as “DSS”) for 4 days to prepare colitis model mice (hereinafter, sometimes referred to as “colitis group” in Examples 7 to 10). The mice taken with DSS for 4 days were fed with normal water from Day 5. The DSS intake start date was defined as Day 1 of the test, and the day before the DSS intake start date was defined as Day 0 of the test. In addition, a group in which C57BL/6 strain mice (male, 8 to 12 weeks old) were fed with normal water was defined as a “healthy group” (the same applies to Examples 8 to 10).
In order to evaluate colitis severity, the fecal condition was evaluated and the body weight was measured daily for the colitis model mice and healthy group prepared in the above item (1). The fecal condition was evaluated based on the following five-grade fecal scores. Specifically, the fecal scores were 0: normal; 1: soft but still formed; 2: very soft; 3: diarrhea; and 4: bloody feces. In addition, the colon length was measured as an index of the colitis severity.
To investigate the role of 5,6-DiHETE in the healing phase, the colitis model mice prepared in Example 7(1) were intraperitoneally injected with 5,6-DiHETE (manufactured by Cayman Chemical) (50 μg/kg/day) or HC-067047 (manufactured by Cayman Chemical) (1 mg/kg/day) on Days 9, 11 and 13 of the test (hereinafter, sometimes referred to as “5,6-DiHETE-administered group” and “HC-067047-administered group,” respectively, in Examples 9 and 10). HC-067047 is known to inhibit an increase of calcium ion concentration in endothelial cells.
The colitis severity was determined according to the index and criteria described in Example 7(2).

[5] = system: anaphylaxis model mice; test: Histamine-induced anaphylaxis: blood pressure and body temperature; assay type: in vivo, mouse (C57BL/6); settings: 50 μg/kg intravenously 15 minutes before histamine 50 mg/kg
Method: Histamine (50 mg/kg) lysed in a physiological saline solution was intravenously administered to C57BL/6 strain mice (male, 8 to 12 weeks old) to prepare anaphylaxis model mice (hereinafter, sometimes referred to as “anaphylaxis group”). […] L-NAME is an NO synthesis inhibitor. As indices of anaphylactic symptoms, a body temperature decrease and a blood pressure decrease were observed.

## CC/C=C\C/C=C\C/C=C\C/C=C\C[C@@H](O)[C@@H](O)CCCC(=O)O (racemic) [5,6-DiHETE, (±) 5,6-dihydroxy-8Z,11Z,14Z,17Z-eicosatetraenoic acid]
[1]
  dye extravasation (Evans blue) in ear: 0.06 ± 0.02 µg/mg
[2]; 0.1 μM and 0.3 μM, alone
  change of TER: did not change the TER
[2]; pretreatment 0.3 μM, 15 minutes, before histamine 10 μM
  TER, minimum (normalized cell index): 0.915±0.012 fold
[3]
  histamine-induced NO production: 0.11±0.06 pmol/μg protein
[4]
  colon length: 6.4±0.1 cm
  fecal score: decreased to the normal level
  relative body weight, of the initial weight: 115.2±2.5%
[5]
  blood pressure: 93.3±4.9 mmHg
  body temperature decrease: −0.2±0.1 °C
